Assay results published in patent US20020142457A1, “Cell having the potentiality of differentiation into cardiomyocytes” (priority 1999, published 2002).

Columns and labels:
[1] = test system: Nkx2.5/Csx and GATA4 co-forced expressing bone marrow cells (BMSC-Nkx2.5-GATA4); experiment: Differentiation of BMSC-Nkx2.5-GATA4 with cytokines, phase-contrast microscope; type: cell-based, mouse; details: BMSC-Nkx2.5-GATA4, 5-aza-C 3 μM in all dishes; cytokine 10 ng/ml; four weeks
Protocol: The Nkx2.5/Csx and GATA4 co-forced expressing bone marrow cells (BMSC-Nkx2.5-GATA4) having the potential to differentiate into cardiomyocytes were plated into a 60-mm culture dish at a density of 2×10^4 cells/ml and cultured at 33° C. in a 5% CO2-incubator.
On the next day, 5-aza-C was added to the culture medium to give a final concentration of 3 μM. Furthermore, 5 treatments differing from each other were carried out by adding FGF-8 to give a final concentration of 10 ng/ml (culture dish I); adding ET-1 to give a final concentration of 10 ng/ml (culture dish J); adding midkine to give a final concentration of 10 ng/ml (culture dish K); adding BMP4 to give a final concentration of 10 ng/ml (culture dish L); and adding nothing (culture dish M), followed by culturing.
On the next day, the medium was replaced with a fresh medium to eliminate 5-aza-C. Then, FGF-8 was added to the culture dish I to give a final concentration of 10 ng/ml; ET-1 was added to the culture dish J to give a final concentration of 10 ng/ml; midkine was added to the culture dish K to give a final concentration of 10 ng/ml; and BMP4 was added to the culture dish L to give a final concentration of 10 ng/ml, followed by culturing. Two and four days thereafter, furthermore, the medium was replaced, and the FGF-8, ET-1, midkine or BMP4 was added.
As a result, about 30% of the cells in the culture dish containing 5-aza-C alone were converted into myotubes, while about 50% of the cells in the culture dishes containing FGF-8, ET-1, midkine or BMP4 differentiated into myotubes respectively. On the other hand, the addition of FGF-8, ET-1, midkine or BMP4 caused no increase in beating cardiomyocytes.

[2] = test system: mouse bone marrow-derived pluripotent stem cells (BMSC); experiment: Differentiation of BMSC into myotubes, phase-contrast microscope; type: cell-based; details: 5-aza-C 3 μM in all dishes
Protocol: The mouse bone marrow-derived pluripotent stem cells (BMSC) having the potential to differentiate into cardiomyocytes were plated into 60-mm culture dishes and 60 mm fibronectin-coated dishes (Becton Dickinson) at a density of 2×10^4 cells/ml and cultured at 33° C. in a 5% CO2-incubator.
On the next day, 5-aza-C was added to each culture medium in a final concentration of 3 μM, followed by culturing with the following 3 different treatments, with addition of PDGF (culture dish A), both PDGF and retinoic acid (culture dish B) or without addition of any compound (culture dish C) (final concentration: PDGF, 10 ng/ml; retinoic acid, 10^−9 M).
On the next day, the medium was replaced with a fresh medium to remove 5-aza-C therefrom. Then, PDGF was added to the culture dish A until the final concentration of PDGF came to be 10 ng/ml, while PDGF and retinoic acid were added to the culture dish B until the final concentrations of PDGF and retinoic acid came to be 10 ng/ml and 10^−9 M, respectively. Two and four days thereafter, the medium was replaced and the PDGF or retinoic acid was further added.
As a result, about 30% of the cells in the culture dish containing 5-aza-C alone differentiated into myotubes, while about 40% of the cells in the culture dish containing PDGF and about 50% of the cells in the culture dish containing PDGF together with retinoic acid differentiated into myotubes. In the three groups of the fibronectin-coated dishes, the ratio of the cells differentiated into myotubes was about 10% higher than in the three groups of the culture dishes.
(§1) RNAs were collected from the myotubes thus obtained. And genes expressed in the myotubes were analyzed with quantitative PCR analysis using the synthetic oligonucleotides represented by SEQ ID NOS:71 to 78. As a result, PDGF or retinoic acid promoted the expression of MyoD and fTnI genes relating to a skeletal muscle but not cTnI or ANP specifically relating to a myocardium. Next, mouse bone marrow-derived pluripotent stem cells (BMSC) having the potential to differentiate into cardiomyocytes were inoculated in a 60-mm culture dish at a density of 2×10^4 cells/ml and cultured using an incubator at 33° C. under 5% of CO2.
On the next day, 5-aza-C was added to the liquid culture medium to give a final concentration of 3 μM. Furthermore, five treatments differing from each other were performed by adding FGF-8 to give a final concentration of 10 ng/ml (culture dish D); adding ET-1 to give a final concentration of 10 ng/ml (culture dish E); adding a midkine to give a final concentration of 10 ng/ml (Culture dish F); adding BMP4 to give a final concentration of 10 ng/ml (culture dish G); and adding no compound (culture dish H), followed by culturing.
On the next day, the medium was replaced by a fresh medium to eliminate 5-aza-C therefrom. Then, FGF-8 was added to the culture dish D to give a final concentration of 10 ng/ml; ET-1 was added to the culture dish E to give a final concentration of 10 ng/ml; the midkine was added to the culture dish F to give a final concentration of 10 ng/ml; and BMP4 was added to the culture dish G to give a final concentration of 10 ng/ml, followed by culturing. Two and four days thereafter, the medium was replaced and the FGF-8, ET-1, midkine or BMP4 was further added.
As a result, about 30% of the cells in the culture dish containing 5-aza-C alone differentiated into myotubes, while about 50% of the cells in the culture dishes containing FGF-8, ET-1, midkine or BMP4 differentiated into myotubes respectively.

KUM2 cells = experiment: Induction of spontaneously beating cardiomyocytes in KUM2 cells by 5-aza-C; type: cell-based, mouse; details: 5-aza-C 3 μM for 24 hours
Protocol: After culturing for about 4 months under the above conditions, immortalized cells were selected and diluted to establish 192 cell lines respectively derived from single cells (hereinafter referred to as bone marrow-derived first passage immortalized cell lines). To each of these clone-derived cell lines was added 5-aza-C at a final concentration of 3 μM, and the cells were cultured for 24 hours. After culturing for further 2 weeks in IMDM, clones that produced spontaneously beating cells were selected. […] One of three cell lines is KUM2. Hereinafter, unless otherwise indicated, the bone marrow cell KUM2 and mouse bone marrow-derived pluripotent stem cells (BMSC) described below were cultured in IMDM supplemented with 20% FCS, […] penicillin, 250 ng/ml streptomycin and […] amphotericin at 33° C. using a 5% CO2-incubator. When the KUM2 cells were exposed to 5-aza-C having a final concentration of 3 μM for 24 hours, nonspecific differentiation into spontaneously beating cardiomyocytes was induced. However, the frequency is very low (one or less per 10^7 cells).

[3] = test system: mouse bone marrow-derived pluripotent stem cells (BMSC); experiment: Induction of differentiation of BMSC into cardiomyocytes using DMSO; type: cell-based; details: then 6 weeks
Protocol: According to the method described in Example 1, mouse bone marrow-derived pluripotent stem cells (BMSC) having the potential to differentiate into cardiomyocytes were obtained and cultured for 24 hours in the presence of 10 μM DMSO instead of 3 μM 5-aza-C. The medium was replaced with IMDM, followed by culturing for 6 weeks.

Bone marrow cells (BMSC) = experiment: Induction of adipocytes from BMSC by PPAR-γ receptor agonists; type: cell-based, mouse
Protocol: Bone marrow cells (BMSC) having the potential to differentiate into cardiomyocytes can be induced to differentiate not only into cardiomyocytes but also into adipocytes. To control the differentiation into adipocytes, the conditions for the induction of the differentiation were examined. First, the expression of PPAR-y receptors was analyzed by the quantitative PCR method. […] Subsequently, PPAR-γ receptor agonists, pioglitazone and troglitazone, were added at various concentrations to bone marrow cells (BMSC) having the potential to differentiate into cardiomyocytes.

[4] = test system: mouse bone marrow-derived pluripotent stem cells (BMSC); experiment: Quantitative PCR of genes expressed in myotubes from BMSC; type: cell-based; details: with 5-aza-C 3 μM; for expression of cTnI or ANP specifically relating to a myocardium: PDGF 10 ng/ml, retinoic acid 10^−9 M
Protocol: as §1
RNAs were collected from the myotubes thus obtained. And genes expressed in the myotubes were analyzed with quantitative PCR using the synthetic oligonucleotides represented by SEQ ID NOS:71 to 78. As a result, the FGF-8, ET-1, midkine and BMP4 each individually promoted the expression of cTnI and ANP gene which are myocardium-specific genes.

[5] = culture dishes, PDGF 10 ng/ml, retinoic acid 10^−9 M, four weeks

Molecule | cells differentiated into myotubes [2, 5] | BMSCs differentiated into adipocytes (Bone marrow cells (BMSC); 0.4 μM) | BMSCs differentiated into adipocytes (Bone marrow cells (BMSC); 2 μM) | expression of MyoD and fTnI genes relating to a skeletal muscle [4] | expression of cTnI or ANP specifically relating to a myocardium [4] | further results
Nc1ncn([C@@H]2O[C@H](CO)[C@@H](O)[C@H]2O)c(=O)n1 [5-aza-C, 5-azacytidine, reference compound] | about 30% |  |  |  |  | cells differentiated into myotubes [1]: about 30%; cells differentiated into myotubes ([2]; cytokine 10 ng/ml, four weeks after addition of 5-aza-C): about 30%; frequency of differentiation into spontaneously beating cardiomyocytes (KUM2 cells): one or less
C[S+](C)[O-] [DMSO, dimethyl sulfoxide] |  |  |  |  |  | differentiation into beating cardiomyocytes ([3]; 10 μM DMSO for 24 hours instead of 5-aza-C): induced to differentiate into beating cardiomyocytes; expression of Nkx2.5/Csx and GATA4 genes in produced cells ([3]; 10 μM DMSO for 24 hours): expressed
CCc1ccc(CCOc2ccc(CC3SC(=O)NC3=O)cc2)nc1 (stereo not drawn) [pioglitazone] |  | about 50% | ~100% |  |  | 
CC1=C(/C=C/C(C)=C/C=C/C(C)=C/C(=O)O)C(C)(C)CCC1 [retinoic acid, all trans retinoic acid, reference compound] |  |  |  | promoted | not | 
Cc1c(C)c2c(c(C)c1O)CCC(C)(COc1ccc(CC3SC(=O)NC3=O)cc1)O2 (stereo not drawn) [troglitazone] |  | about 50% | ~100% |  |  | 
PDGF | about 40% |  |  | promoted | not | 
